Test results as given in US9290451B2 (Hoffmann-La Roche Inc., priority 2011, dated 2016).

Key:
human CB1 receptors = human CB1 receptors (Homo sapiens (Human), UniProt P21554); assay: cAMP assay, CHO cells expressing human CB1 receptors; type: cell-based; settings: CHO cells expressing human CB1, cAMP; read-out: human CB1 EC50
In short: (§1)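 In this cellular cAMP test, IBMX (1 mM) blocked phosphodiesterase during a 30-min, 30 °C compound exposure. Accumulated cAMP was measured by a lysis-based TR-FRET kit and interpolated from a standard curve to give EC50.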

human CB2 receptors = human CB2 receptors (Homo sapiens (Human), UniProt P34972); assay: cAMP assay, CHO cells expressing human CB2 receptors; type: cell-based; settings: CHO cells expressing human CB2, cAMP; read-out: human CB2 EC50
Chain of human CB2 receptors (P34972 whole entry): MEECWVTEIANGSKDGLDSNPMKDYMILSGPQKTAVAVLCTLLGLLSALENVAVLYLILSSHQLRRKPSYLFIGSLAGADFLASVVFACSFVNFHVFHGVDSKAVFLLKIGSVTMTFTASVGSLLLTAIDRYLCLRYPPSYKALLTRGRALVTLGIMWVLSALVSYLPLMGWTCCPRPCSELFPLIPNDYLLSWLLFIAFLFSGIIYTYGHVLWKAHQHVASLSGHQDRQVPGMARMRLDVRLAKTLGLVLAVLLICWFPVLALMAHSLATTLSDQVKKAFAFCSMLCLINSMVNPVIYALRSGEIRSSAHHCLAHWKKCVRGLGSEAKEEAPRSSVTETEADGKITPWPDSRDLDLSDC
In short: as §1

Chain of human CB1 receptors (P21554 whole entry): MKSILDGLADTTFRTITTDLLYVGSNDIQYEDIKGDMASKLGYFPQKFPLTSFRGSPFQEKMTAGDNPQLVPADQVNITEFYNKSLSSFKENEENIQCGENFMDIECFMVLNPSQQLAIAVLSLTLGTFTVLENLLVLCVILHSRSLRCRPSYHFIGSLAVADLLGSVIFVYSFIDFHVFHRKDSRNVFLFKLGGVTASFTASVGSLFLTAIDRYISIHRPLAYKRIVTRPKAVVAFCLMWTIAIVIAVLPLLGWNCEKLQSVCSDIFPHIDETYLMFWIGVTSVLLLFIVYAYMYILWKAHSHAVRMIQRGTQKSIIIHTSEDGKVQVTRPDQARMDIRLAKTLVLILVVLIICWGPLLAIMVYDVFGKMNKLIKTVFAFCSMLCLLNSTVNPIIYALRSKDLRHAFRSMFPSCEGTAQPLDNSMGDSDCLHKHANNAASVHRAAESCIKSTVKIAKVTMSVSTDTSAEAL

SMILES | EC50 (human CB1 receptors) [nM] | EC50 (human CB2 receptors) [nM]
CC(C)(C)NC(=O)c1ccc(C2CC2)c(OCC2CC2)n1 [Example 368, 5-Cyclopropyl-6-cyclopropylmethoxy-pyridine-2-carboxylic acid tert-butylamide] | > 10000 | 26.3
O=C(NC1CCCCC1O)c1ccc(N2CC(F)(F)C2)c(OCC2CC2)n1 (stereo not shown) [Example 137, 6-Cyclopropylmethoxy-5-(3,3-difluoro-azetidin-1-yl)-pyridine-2-carboxylic acid (2-hydroxy-cyclohexyl)-amide] | > 10000 | 211
CC(C)(NC(=O)c1cccc(-c2cccc(Cl)c2)n1)c1ncon1 [Example 72, 6-(3-Chloro-phenyl)-pyridine-2-carboxylic acid (1-methyl-1-[1,2,4]oxadiazol-3-yl-ethyl)-amide] | > 10000 | 32.8
CSCC[C@H](NC(=O)c1ccc(N2CC(F)(F)C2)c(OCC2CC2)n1)C(N)=O [Example 342, 6-Cyclopropylmethoxy-5-(3,3-difluoro-azetidin-1-yl)-pyridine-2-carboxylic acid ((S)-1-carbamoyl-3-methylsulfanyl-propyl)-amide] | > 10000 | 2.8
O=C(NN1CCCCC1)c1ccc(Cl)c(-c2cccc(Cl)c2)n1 [Example 66, 5-Chloro-6-(3-chloro-phenyl)-pyridine-2-carboxylic acid piperidin-1-ylamide] | > 10000 | 216
CC(C)(CO)NC(=O)c1ccc(C2CCOC2)c(OCC2CC2)n1 (stereo not shown) [Example 141, 6-Cyclopropylmethoxy-5-(tetrahydro-furan-3-yl)-pyridine-2-carboxylic acid (2-hydroxy-1,1-dimethyl-ethyl)-amide] | > 10000 | 459
O=C(NN1CCCCC1)c1cccc(OCC2CC2)n1 [Example 68, 6-Cyclopropylmethoxy-pyridine-2-carboxylic acid piperidin-1-ylamide] | > 10000 | 429
CC(C)C[C@H](NC(=O)c1cccc(Cc2ccc(F)cc2)n1)C(N)=O [Example 277, 6-(4-Fluoro-benzyl)-pyridine-2-carboxylic acid ((S)-1-carbamoyl-3-methyl-butyl)-amide] | 1700 | 16.6
NC(=O)[C@H](NC(=O)c1ccc(N2CC(F)(F)C2)c(OCC2CC2)n1)C1CC1 [Example 377, 6-Cyclopropylmethoxy-5-(3,3-difluoro-azetidin-1-yl)-pyridine-2-carboxylic acid ((−)-carbamoyl-cyclopropyl-methyl)-amide] | > 10000 | 178
Cc1cc(C(C)(C)NC(=O)c2cccc(-c3cccc(Cl)c3)n2)on1 [Example 28, 6-(3-Chloro-phenyl)-pyridine-2-carboxylic acid [1-methyl-1-(3-methyl-isoxazol-5-yl)-ethyl]-amide] | > 10000 | 564
CCC(CC)(NC(=O)c1ccc(C2CCOCC2)c(OCC2CC2)n1)C(=O)NC [Example 85, 6-Cyclopropylmethoxy-5-(tetrahydro-pyran-4-yl)-pyridine-2-carboxylic acid (1-ethyl-1-methylcarbamoyl-propyl)-amide] | > 10000 | 186
Cc1nc([C@H](CC2CC2)NC(=O)c2ccc(C3CC3)c(OCC(F)(F)C(F)(F)F)n2)no1 [Example 300, 5-Cyclopropyl-6-(2,2,3,3,3-pentafluoro-propoxy)-pyridine-2-carboxylic acid [(S)-2-cyclopropyl-1-(5-methyl-[1,2,4]oxadiazol-3-yl)-ethyl]-amide] | > 10000 | 31.8
O=C(N[C@@H](CC1CC1)c1nccs1)c1ccc(N2CC(F)(F)C2)c(OCC2CC2)n1 [Example 146, 6-Cyclopropylmethoxy-5-(3,3-difluoro-azetidin-1-yl)-pyridine-2-carboxylic acid ((S)-2-cyclopropyl-1-thiazol-2-yl-ethyl)-amide] | > 10000 | 36.6
CC1(NC(=O)c2ccc(N3CC(F)(F)C3)c(OCC3CC3)n2)COC1 [Example 370, 6-Cyclopropylmethoxy-5-(3,3-difluoro-azetidin-1-yl)-pyridine-2-carboxylic acid (3-methyl-oxetan-3-yl)-amide] | > 10000 | 96.4
NC(=O)[C@H](NC(=O)c1ccc(C2CC2)c(OCC2CC2)n1)c1ccccc1 [Example 173, (R)-N-(2-Amino-2-oxo-1-phenylethyl)-5-cyclopropyl-6-(cyclopropylmethoxy)picolinamide] | > 10000 | 23.1
CC(C)C[C@H](NC(=O)c1ccc(C2CC2)c(OCC2CC2)n1)C(=O)OC(C)(C)C [Example 366, (S)-2-[(5-Cyclopropyl-6-cyclopropylmethoxy-pyridine-2-carbonyl)-amino]-4-methyl-pentanoic acid tert-butyl ester] | > 10000 | 26.4

SMILES | EC50 (human CB1 receptors) [nM] | EC50 (human CB2 receptors) [nM]
CNC(=O)C(C)(C)NC(=O)c1ccc(C2CC2)c(OCC2CC2)n1 [Example 43, 5-Cyclopropyl-6-cyclopropylmethoxy-pyridine-2-carboxylic acid (1-methyl-1-methylcarbamoyl-ethyl)-amide] | > 10000 | 275
CC(C)C[C@H](NC(=O)c1ccc(C(F)(F)F)c(OCC2CC2)n1)C(N)=O [Example 118, 6-Cyclopropylmethoxy-5-trifluoromethyl-pyridine-2-carboxylic acid ((S)-1-carbamoyl-3-methyl-butyl)-amide] | 1550 | 13.4
CC(C)[C@@](C)(CO)NC(=O)c1ccc(C2CC2)c(OCC2CC2)n1 [Example 279, 5-Cyclopropyl-6-cyclopropylmethoxy-pyridine-2-carboxylic acid ((S)-1-hydroxymethyl-1,2-dimethyl-propyl)-amide] | > 10000 | 23
COCCOCC(C)(C)NC(=O)c1ccc(N2CC(F)(F)C2)c(-c2cccc(Cl)c2)n1 [Example 152, 6-(3-Chloro-phenyl)-5-(3,3-difluoro-azetidin-1-yl)-pyridine-2-carboxylic acid [2-(2-methoxy-ethoxy)-1,1-dimethyl-ethyl]-amide] | > 10000 | 442
Cc1nc(C(C)(C)NC(=O)c2cccc(-c3cccc(Cl)c3)n2)no1 [Example 41, 6-(3-Chloro-phenyl)-pyridine-2-carboxylic acid [1-methyl-1-(5-methyl-[1,2,4]oxadiazol-3-yl)-ethyl]-amide] | > 10000 | 99.9
NC(=O)[C@@H](NC(=O)c1ccc(N2CC(F)(F)C2)c(OCC2CC2)n1)C1CC1 [Example 376, 6-Cyclopropylmethoxy-5-(3,3-difluoro-azetidin-1-yl)-pyridine-2-carboxylic acid ((+)-carbamoyl-cyclopropyl-methyl)-amide] | > 10000 | 59.5
CNC(=O)[C@H](CC(C)C)NC(=O)c1cccc(-c2cccc(F)c2)n1 [Example 210, (S)-6-(3-Fluorophenyl)-N-(4-methyl-1-(methylamino)-1-oxopentan-2-yl)picolinamide] | > 10000 | 62
CC(C)C[C@H](NC(=O)c1ccc(C2CC2)c(OCC2CC2)n1)C(=O)N(C)C [Example 231, 5-Cyclopropyl-6-cyclopropylmethoxy-pyridine-2-carboxylic acid ((S)-1-dimethylcarbamoyl-3-methyl-butyl)-amide] | 678 | 1.4
CC(C)C[C@H](NC(=O)c1ccc(Br)c(Oc2ccc(F)cc2)n1)C(N)=O [Example 177, 5-Bromo-6-(4-fluoro-phenoxy)-pyridine-2-carboxylic acid ((S)-1-carbamoyl-3-methyl-butyl)-amide] | > 10000 | 196
CCC(CC)(NC(=O)c1ccc(C2CC2)c(OCC2CC2)n1)C(=O)OC [Example 251, 2-[(5-Cyclopropyl-6-cyclopropylmethoxy-pyridine-2-carbonyl)-amino]-2-ethyl-butyric acid methyl ester] | 90.6 | 1.4
CC(C)(NC(=O)c1ccc(C2CCCO2)c(-c2cccc(Cl)c2)n1)c1ncco1 (stereo not shown) [Example 126, 6-(3-Chloro-phenyl)-5-(tetrahydro-furan-2-yl)-pyridine-2-carboxylic acid (1-methyl-1-oxazol-2-yl-ethyl)-amide] | > 10000 | 240
CC(C)(NC(=O)c1ccc(Cl)c(-c2cccc(Cl)c2)n1)c1nccs1 [Example 58, 5-Chloro-6-(3-chloro-phenyl)-pyridine-2-carboxylic acid (1-methyl-1-thiazol-2-yl-ethyl)-amide] | 1110 | 104
Cc1nc(C(C)(C)NC(=O)c2ccc(C(F)(F)F)c(OCC3CC3)n2)no1 [Example 120, 6-Cyclopropylmethoxy-5-trifluoromethyl-pyridine-2-carboxylic acid [1-methyl-1-(5-methyl-[1,2,4]oxadiazol-3-yl)-ethyl]-amide] | > 10000 | 259
CNC(=O)[C@@H](NC(=O)c1ccc(N2CC(F)(F)C2)c(OCC2CCCO2)n1)C(C)(C)C (stereo partly drawn) [Example 206, 5-(3,3-Difluoroazetidin-1-yl)-N-((S)-3,3-dimethyl-1-(methylamino)-1-oxobutan-2-yl)-6-((tetrahydrofuran-2-yl)methoxy)picolinamide] | > 10000 | 25
CCOC(=O)C(CC)(CC)NC(=O)c1ccc(Br)c(OCC2CC2)n1 [Example 265, 2-[(5-Bromo-6-cyclopropylmethoxy-pyridine-2-carbonyl)-amino]-2-ethyl-butyric acid ethyl ester] | > 10000 | 2.8
CNC(=O)[C@@H](NC(=O)c1cccc(-c2cccc(C(F)(F)F)c2)n1)C(C)(C)C [Example 214, (S)-N-(3,3-Dimethyl-1-(methylamino)-1-oxobutan-2-yl)-6-(3-(trifluoromethyl)phenyl)-picolinamide] | 1630 | 53.7
